Columns and labels:
[1] = tested on: Leishmania donovani axenic amastigote parasites; experiment: Leishmania donovani axenic amastigote proliferation assay; assay type: cell-based; conditions: read-out: L. donovani amastigotes EC50
Procedure, shortened: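 L. donovani axenic amastigotes (9600/well) in RPMI 1640 with 20% heat-inactivated FBS, folic acid, adenosine, glucose and 25 mM MES, pH 5.5, were incubated with compounds for 2 days at 37 °C, 5% CO2. Viability read by CellTiter-Glo luminescence; EC50 calculated.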

[2] = tested on: L. donovani HU3 strain in mouse peritoneal macrophages; experiment: Assay for proliferation of Leishmania parasites in mouse peritoneal macrophages; assay type: cell-based, Leishmania donovani; conditions: Leishmania donovani, Peritoneal macrophage, read-out: L. donavani Macrophage EC50
Procedure, shortened: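 BALB/c peritoneal macrophages infected 24 h with L. donovani HU3 amastigotes taken from spleens of mice infected 9–11 weeks, then treated with compound for 5 days at 37° C, 5% CO2. Parasite nuclei counted by SYBR Green imaging after fixation; EC50 from percentage inhibition.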

[3] = tested on: Trypanosoma brucei Lister 427 strain bloodstream form; experiment: Assay for proliferation of kinetoplastid parasite Trypanosoma brucei; assay type: cell-based; conditions: 48 h, read-out: T. brucei EC50
Procedure, shortened: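 Bloodstream-form T. brucei Lister 427 in HMI-9 medium was exposed to compound (DMSO vehicle) for 48 hours at 37° C, 5% CO2. Parasite growth was read as ATP by CellTiter-Glo luminescence, with EC50 calculated from percent inhibition.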

[4] = tested on: Trypanosoma cruzi amastigotes (Tulahuen strain) cultured in 3T3 fibroblast cells; experiment: Assay for proliferation of kinetoplastid parasite Trypanosoma cruzi; assay type: cell-based; conditions: TULAHUEN, Fibroblast, 144 h, read-out: T cruzi EC50
Description: Assay for Proliferation of Kinetoplastid Parasite Trypanosoma cruzi.
Compounds of the invention can be assayed to measure their capacity to inhibit proliferation of kinetoplastid parasite Trypanosoma cruzi. The screening procedure is for identifying compounds with inhibitor activity against Trypanosoma cruzi amastigotes cultured in 3T3 fibroblast cells. The assay is done using the mammalian stage (amastigotes) of T. cruzi that replicates in the intracellular space of host cells. The host cells are initially infected with the culture-derived trypomastigotes that rapidly invade and then divide as amastigotes. The protocol uses the Tulahuen strain of T. cruzi that has been engineered to express the E. coli beta-galactosidase gene (Lac-Z) (Antimicr. Agents Chemoth. 40:2592, 1996). This allows for a colorimetric readout by using the substrate CPRG and an absorbance plate reader.
3T3 fibroblast cells are re-suspended in RPMI-1640 medium without phenol red medium supplemented with 10% FBS (heat inactivated), 100 μg/ml penicillin, and 100 μg/ml streptomycin. Forty μL of suspension (1,000 cells) is dispensed into 384-well plates and incubated overnight at 37° C. temperature and in atmosphere containing 5% CO2. The following day, 100 nL of compounds of the invention in DMSO are added to plate wells containing 3T3 cells. At the same time control compounds (benznidazole and nifurtimox) and DMSO are added to plates to serve as the positive and negative controls, respectively. After that, 10 μL of media containing 10,000 T. cruzi trypomastigotes are added to each plate well and plates are placed back into incubators. After 6 day incubation, 10 μL of reagent solution (0.6 mM CPRG, 0.6% NP-40 in PBS) is added to plates and incubated at room temperature for 2 hours. Absorbance is then measured on SpectraMax Gemini […] to determine relative number of T. cruzi cells present in each plate well. The percentage inhibition of 50%, EC50, is calculated for each compound. […] Typically, the EC50 is 10 μM or less.

[5] = patients injected; cited from earlier work

SMILES	EC50 [1] [nM]	EC50 [2] [µM]	EC50 [3] [nM]	EC50 [4] [nM]	patients who developed reactive encephalopathy (convulsions, progressive coma, or psychotic reactions) [5]	reactive encephalopathy cases that result in death [5]
CCOC(=O)Nc1ccc(Cl)c(-c2nc3ncc(Br)cc3[nH]2)c1 [Example 370, Ethyl N-(3-{6-bromo-1H-imidazo[4,5-b]pyridin-2-yl}-4-chlorophenyl)carbamate]	2530	7.4	520	1200	–	–
Nc1nc(N)nc(Nc2ccc([As]3SCC(CO)S3)cc2)n1 (stereo not drawn) [Melarsoprol]	–	–	–	–	3-10%	10-70%

— US9233961B2, “Compounds and compositions for the treatment of parasitic diseases” (Novartis AG, priority 2013, dated 2016)
